Measurements published in paper PMC6979384, “Characterization of the plant homeodomain (PHD) reader family for their histone tail interactions” (Epigenetics & Chromatin, 2020).

What was measured:
Assay in all cases: Histone peptide microarray
Type in all cases: binding, human
PHF8 = settings: PHF8; sheet "Array Heatmap"; each array performed twice, total n = 4
Outline: (§1)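 Binding read as mean relative signal from 4 replicates; microarray held 293 synthetic histone peptides with single or combinatorial PTMs. Each GST-tagged PHD reader was applied at 0.5 μM using the optimized Petell protocol.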

CHD4 (PPCC) = settings: CHD4 (PPCC); sheet "Array Heatmap"; each array performed twice, total n = 4
Outline: as §1

ING1 = settings: ING1; sheet "Array Heatmap"; each array performed twice, total n = 4
Outline: as §1

KDM5B (1) = settings: KDM5B (1); sheet "Array Heatmap"; each array performed twice, total n = 4
Outline: as §1

PHRF1 (RP) = settings: PHRF1 (RP); sheet "Array Heatmap"; each array performed twice, total n = 4
Outline: as §1

CHD5 (PPCC) = settings: CHD5 (PPCC); sheet "Array Heatmap"; each array performed twice, total n = 4
Outline: as §1

ING4 = settings: ING4; sheet "Array Heatmap"; each array performed twice, total n = 4
Outline: as §1

BPTF (PB) = settings: BPTF (PB); sheet "Array Heatmap"; each array performed twice, total n = 4
Outline: as §1

BAZ2B = settings: BAZ2B; sheet "Array Heatmap"; each array performed twice, total n = 4
Outline: as §1

TRIM66 (PB) = settings: TRIM66 (PB); sheet "Array Heatmap"; each array performed twice, total n = 4
Outline: as §1

CHD5 (PCC) = settings: CHD5 (PCC); sheet "Array Heatmap"; each array performed twice, total n = 4
Outline: as §1

PHF23 = settings: PHF23; sheet "Array Heatmap"; each array performed twice, total n = 4
Outline: as §1

MLL5 = settings: MLL5; sheet "Array Heatmap"; each array performed twice, total n = 4
Outline: as §1

KDM4C (TTP) = settings: KDM4C (TTP); sheet "Array Heatmap"; each array performed twice, total n = 4
Outline: as §1

TAF3 = settings: TAF3; sheet "Array Heatmap"; each array performed twice, total n = 4
Outline: as §1

PHF2 = settings: PHF2; sheet "Array Heatmap"; each array performed twice, total n = 4
Outline: as §1

ING5 = settings: ING5; sheet "Array Heatmap"; each array performed twice, total n = 4
Outline: as §1

KDM5A (1) = settings: KDM5A (1); sheet "Array Heatmap"; each array performed twice, total n = 4
Outline: as §1

ING3 = settings: ING3; sheet "Array Heatmap"; each array performed twice, total n = 4
Outline: as §1

DPF2 (PPC2W2) = settings: DPF2 (PPC2W2); sheet "Array Heatmap"; each array performed twice, total n = 4
Outline: as §1

AIRE (PP) = settings: AIRE (PP); sheet "Array Heatmap"; each array performed twice, total n = 4
Outline: as §1

RAG2 = settings: RAG2; sheet "Array Heatmap"; each array performed twice, total n = 4
Outline: as §1

DIDO1 = settings: DIDO1; sheet "Array Heatmap"; each array performed twice, total n = 4
Outline: as §1

PHF13 = settings: PHF13; sheet "Array Heatmap"; each array performed twice, total n = 4
Outline: as §1

ING2 = settings: ING2; sheet "Array Heatmap"; each array performed twice, total n = 4
Outline: as §1

PHF21A = settings: PHF21A; sheet "Array Heatmap"; each array performed twice, total n = 4
Outline: as §1

MORC3 (CW) = settings: MORC3 (CW); sheet "Array Heatmap"; each array performed twice, total n = 4
Outline: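 GST-tagged PHD finger readers were expressed, purified and applied at 0.5 μM to a microarray of 293 synthetic histone peptides carrying single or combinatorial PTMs, using an optimized protocol. Binding signals are averages with standard deviation from 4 replicates.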

SP140L = settings: SP140L; sheet "Array Heatmap"; each array performed twice, total n = 4
Outline: as §1

KDM5B (3) = settings: KDM5B (3); sheet "Array Heatmap"; each array performed twice, total n = 4
Outline: as §1

KDM7A = settings: KDM7A; sheet "Array Heatmap"; each array performed twice, total n = 4
Outline: as §1

KDM5A (3) = settings: KDM5A (3); sheet "Array Heatmap"; each array performed twice, total n = 4
Outline: as §1

Row | Substance | Array Heatmap value (peptide array signal) (PHF8) | Array Heatmap value (peptide array signal) (CHD4 (PPCC)) | Array Heatmap value (peptide array signal) (ING1) | Array Heatmap value (peptide array signal) (KDM5B (1)) | Array Heatmap value (peptide array signal) (PHRF1 (RP)) | Array Heatmap value (peptide array signal) (CHD5 (PPCC)) | Array Heatmap value (peptide array signal) (ING4) | Array Heatmap value (peptide array signal) (BPTF (PB)) | Array Heatmap value (peptide array signal) (BAZ2B) | Array Heatmap value (peptide array signal) (TRIM66 (PB)) | Array Heatmap value (peptide array signal) (CHD5 (PCC)) | Array Heatmap value (peptide array signal) (PHF23) | Array Heatmap value (peptide array signal) (MLL5) | Array Heatmap value (peptide array signal) (KDM4C (TTP)) | Array Heatmap value (peptide array signal) (TAF3) | Array Heatmap value (peptide array signal) (PHF2) | Array Heatmap value (peptide array signal) (ING5) | Array Heatmap value (peptide array signal) (KDM5A (1)) | Array Heatmap value (peptide array signal) (ING3) | Array Heatmap value (peptide array signal) (DPF2 (PPC2W2)) | other results
1 | H2BK5me3: H2B 1-24 [Peptide H2BK5me3] | 0.3604 | 0.5374 | 0.5322 | 0.6322 | 0.4726 | 0.5383 | 0.4354 | 0.341 | 0.449 | 0.6056 | 0.766 | 0.5495 | 0.5755 | 0.446 | 0.2673 | 0.5404 | 0.3443 | 0.4446 | 0.4743 | 0.6454 | Array Heatmap value (peptide array signal) (AIRE (PP)): 0.3902; Array Heatmap value (peptide array signal) (RAG2): 0.2767; Array Heatmap value (peptide array signal) (DIDO1): 0.7661; Array Heatmap value (peptide array signal) (PHF13): 0.5645; Array Heatmap value (peptide array signal) (ING2): 0.6172; Array Heatmap value (peptide array signal) (PHF21A): 0.4302; Array Heatmap value (peptide array signal) (MORC3 (CW)): 0.3836; Array Heatmap value (peptide array signal) (SP140L): 0.332; Array Heatmap value (peptide array signal) (KDM5B (3)): 0.4604; Array Heatmap value (peptide array signal) (KDM7A): 0.3153; Array Heatmap value (peptide array signal) (KDM5A (3)): 0.4811
2 | H2BK12ac: H2B 1-24 [Peptide H2BK12ac] | 0.311 | 0.55 | 0.4874 | 0.5631 | 0.4148 | 0.4364 | 0.3767 | 0.2975 | 0.3626 | 0.5657 | 0.7553 | 0.4647 | 0.5021 | 0.3788 | 0.2326 | 0.5083 | 0.2703 | 0.3805 | 0.413 | 0.6335 | Array Heatmap value (peptide array signal) (AIRE (PP)): 0.3561; Array Heatmap value (peptide array signal) (RAG2): 0.2122; Array Heatmap value (peptide array signal) (DIDO1): 0.6693; Array Heatmap value (peptide array signal) (PHF13): 0.5184; Array Heatmap value (peptide array signal) (ING2): 0.5927; Array Heatmap value (peptide array signal) (PHF21A): 0.4277; Array Heatmap value (peptide array signal) (MORC3 (CW)): 0.3313; Array Heatmap value (peptide array signal) (SP140L): 0.3291; Array Heatmap value (peptide array signal) (KDM5B (3)): 0.4029; Array Heatmap value (peptide array signal) (KDM7A): 0.2936; Array Heatmap value (peptide array signal) (KDM5A (3)): 0.4192
3 | H2BK15ac: H2B 1-24 [Peptide H2BK15ac] | 0.3468 | 0.606 | 0.5436 | 0.6467 | 0.4303 | 0.5537 | 0.465 | 0.3575 | 0.4604 | 0.5831 | 0.7574 | 0.5678 | 0.5596 | 0.4832 | 0.2676 | 0.5204 | 0.3652 | 0.465 | 0.4826 | 0.6359 | Array Heatmap value (peptide array signal) (AIRE (PP)): 0.4221; Array Heatmap value (peptide array signal) (RAG2): 0.2507; Array Heatmap value (peptide array signal) (DIDO1): 0.6647; Array Heatmap value (peptide array signal) (PHF13): 0.6426; Array Heatmap value (peptide array signal) (ING2): 0.6208; Array Heatmap value (peptide array signal) (PHF21A): 0.4803; Array Heatmap value (peptide array signal) (MORC3 (CW)): 0.3521; Array Heatmap value (peptide array signal) (SP140L): 0.361; Array Heatmap value (peptide array signal) (KDM5B (3)): 0.457; Array Heatmap value (peptide array signal) (KDM7A): 0.3558; Array Heatmap value (peptide array signal) (KDM5A (3)): 0.4161
